Common to all, as to format: cell-based, human
Experiment [1] concerns ERKs (Erk1 and Erk2) in hES cells. Nature of the experiment: ERK phosphorylation Western blot in hES cells (Example 1). To be noted: hES cells, 5 min; S1P 10 μM, LPA 50 M, PDGF 20 ng/ml. The method, then:
RT-PCR for LPL receptors (A, B), PDGFR-[…] (alpha) and PDGFR-[…] (beta) (C), SPK-1 and SPK-2 (D), with (+) or without (−) RT. Immunostaining of hES cells with Hoechst 33342 (E, H), PDGFR-[…] (F) or PDGFR-[…] (I) and GCTM-2 (G, J) antibodies. S1P, LPA and PDGF stimulate ERKs phosphorylation in hES cells. (K) Western blots experiment were performed using protein lysate from hES cells. Cells were pre-treated or not with U0126 (30 μM, 1 hr) and incubated for 5 min in the absence (C, control) or presence of S1P (S, 10 μM), LPA (L, […]) or PDGF (P, 20 ng/ml). The phosphorylation of Erk1 and Erk2 (P-Erk1 and P-Erk2) was assessed by immunoblotting with a polyclonal anti-active MAP kinase as described in Materials and Methods. After a stripping procedure, the same blots were reprobed with a monoclonal anti-MAP kinase, allowed the detection of Erk1 and Erk2.
hES-3 cells plated without MEF for 24 hrs were depleted of serum for a further 18 hrs. Cells pre-treated or not with U0126 (Sigma, 30 μM, 1 hr), were incubated in the presence of the different agents for 5 min and were lysed by removal of the supernatants and addition of a reducing loading buffer containing 1 mM sodium orthovanadate (Sigma). Protein lysates (approx. 80 μg) were separated by SDS-polyacrylamide gel electrophoresis (10% polyacrylamide, w/v), transferred to nitrocellulose (Hybond-nitrocellulose, Amersham) and immunoblotting was carried out using rabbit polyclonal anti-active mitogen-activated protein (MAPK) antibodies raised against a dually phosphorylated MAPK peptide (Promega, Madison, Wis., USA). Peroxidase-coupled secondary antibody (Dako) was detected by exposure of autoradiographic films in the presence of a chemiluminescent detection reagent (ECL, Amersham). Stripping of antibodies was achieved and membranes were then reprobed with rabbit polyclonal anti-ERK1/2 antibodies (Promega), and then with peroxidase-coupled secondary antibodies (Dako). Membranes probed with either rabbit polyclonal anti-active p38 (Promega) or rabbit polyclonal anti-active JNK (Promega) antibodies were also performed, using the same procedure as described above.

Experiment [2] relates to hES cells. Description: Spontaneous differentiation of hES colonies on MEF in serum-free medium, morphology (Example 1). Particulars: 8 days serum-free on MEF; S1P 10 μM, PDGF 20 ng/ml, LPA up to 50 μM. The method, then:
(A) hES cells grown with MEF, before the depletion of serum from the medium. (B, C, D, E) hES cells grown without serum after 8 days, in the absence (B) or in the presence of S1P (10 μM) (C), PDGF (20 ng/ml) (D), S1P (10 μM) plus PDGF (20 ng/ml) (E). (F) hES cells grown without serum, in the presence or in the absence (control) of S1P (10 μM), PDGF (20 ng/ml), S1P (10 μM) plus PDGF (20 ng/ml). In A-E, data are representative of at least 3 independent experiments. In F, data expressed as percentages of alkaline phosphatase activity in absence of serum for eight days (% of control), are the means±SEM of at least 2 independent experiments, each run in triplicate.
hES-3 cells were cultured as previously described^1. The serum-free culture medium consisted of DMEM (without sodium pyruvate, glucose 4500 mg/l, Invitrogen, Mount Waverley, VIC, Australia) supplemented with insulin/transferrin/selenium 1%, β-mercaptoethanol 0.1 mM, NEAA 1%, glutamine 2 mM, Hepes 25 mM, penicillin 50 U/ml and streptomycin […] (all from Invitrogen). Medium was changed every 2 days and cells were passaged every week. S1P and dihydro-S1P were obtained from Biomol (Plymouth Meeting, Pa., USA) and were dissolved in methanol. LPA was obtained from Sigma (Castle Hill, NSW, Australia) and was dissolved in ethanol. Extemporaneous dilutions of all lipids were made in water containing 0.1% fatty acid-free bovine serum albumin (BSA) (Sigma). Human PDGF-AB, PDGF-AA, PDGF-BB were from PreproTech Inc. (Rocky Hill, N.J., USA).

Experiment [3] relates to hES cells. Nature of the experiment: GCTM-2/PCNA immunostaining cell count, dissociated hES cells without MEF and serum (Example 1). Particulars: 4 days, no MEF, no serum. An excerpt:
(A) Quantification of the number of GCTM2+ cells. (B) Quantification of the number of PCNA+/GCTM2+ cells.
In some experiments, hES-3 cells plated onto 8-well chamber slides, with or without MEF, were fixed in ethanol or paraformaldehyde (for PDGFR) the day after plating. In others, hES-3 cells were mechanically dissociated, in order to obtain a monolayer culture and then plated onto 8-well chamber slides without MEF and were fixed in ethanol 4 days after the first treatment. Immunostaining was performed using the following antibodies: anti human PDGFR-α or PDGFR-β (R&D Systems Inc.), GCTM-2, and/or PCNA (Chemicon, Boronia, VIC, Australia), TRA-1-60, Oct-4. Nuclei were evidenced by Hoechst-33342. Slides were mounted and observed by fluorescent microscopy with a Leica microscope at ×10, ×20 and ×40. Specificity was verified by the absence of any staining in the negative controls. In some experiments, cells were counted to determine the ratio of GCTM-2 positive (GCTM2+), PCNA positive (PCNA+) and GCTM2+/PCNA+ cells within the global population.

In experiment [4] the test system is hES cells. Nature of the experiment: Spontaneous differentiation of hES colonies on MEF in serum-free medium, morphology (Example 2). Particulars: 2 weeks serum-free on MEF; S1P 10 μM, PDGF-AB 20 ng/ml, LPA up to 50 μM. The method, then:
hES-3 cells were cultured as previously described^1. The serum-free culture medium consisted of DMEM (without sodium pyruvate, glucose 4500 mg/l, Invitrogen, Mount Waverley, VIC, Australia) supplemented with insulin/transferrin/selenium 1%, β-mercaptoethanol 0.1 mM, NEAA 1%, glutamine 2 mM, Hepes 25 mM, penicillin 50 U/ml and streptomycin […] (all from Invitrogen). Media was changed every 2 days and cells were passaged every week S1P and dihydro-S1P were obtained from Biomol (Plymouth Meeting, Pa., USA). LPA was obtained from Sigma (Castle Hill, NSW, Australia). Extemporaneous dilutions of all lipids were made in water containing 0.1% fatty acid-free bovine serum albumin (BSA) (Sigma). […] Human PDGF-AB, PDGF-AA, PDGF-BB were from Prepro Tech Inc. (Rocky Hill, N.J., USA) and were used at 20 ng/ml.

For the molecule `CCCCCCCCCCCCC/C=C/[C@@H](O)[C@@H](N)COP(=O)(O)O` [S1P, Sphingosine-1-phosphate], in experiment [1], the “phosphorylation of ERKs” value is listed as “stimulated the phosphorylation of ERKs”. The “colony growth/morphology (spontaneous differentiation)” value in experiment [2] was “flatter and less differentiated”. In addition, in experiment [3], the “proliferating rate of hES cells (PCNA+) versus control” value was “no statistically significant difference”. Moreover, the “size or morphology of hES cell colonies (spontaneous differentiation)” value in experiment [4] was “flatter and less differentiated”.

As to PDGF, in experiment [1], the “phosphorylation of ERKs” value is recorded as “stimulated the phosphorylation of ERKs”. In experiment [2], the “colony growth/morphology (spontaneous differentiation)” value is “flatter and less differentiated”. Further, in experiment [3], the “proliferating rate of hES cells (PCNA+) versus control” value was “no statistically significant difference”. Moreover, the “cells GCTM2+” value in experiment [3] (mechanically dissociated, S1P 10 μM, PDGF 10 ng/ml) is 53.7±13.2%. In experiment [4], the “size or morphology of hES cell colonies (spontaneous differentiation)” value is “flatter and less differentiated”.

For the origin of these results see patent publication US7604990B2, “Methods of regulating differentiation in stem cells” (ES Cell International Pte Ltd., priority 2002, dated 2009).
